In EPA's ToxValDB 9.5 (doi:10.2903/j.efsa.2016.4575):
In brackets after ≈: the same amount, converted by molar mass.

How the values were obtained:
Apis mellifera = conditions: acute, mortality
Bibionidae = conditions: chronic/long-term; duration: 23 days
Bird = conditions: acute; oral; unspecified; mortality
Canidae = conditions: Dog Other; for NOAEL: oral, hematological
Colinus virginianus = conditions: chronic
Coturnix japonica = conditions: acute; oral; M; mortality
Daphnia magna = conditions: chronic/long-term; duration: 21 days
Folsomia candida = conditions: chronic/long-term; reproduction
Tagia sp. = conditions: chronic/long-term; mortality
Typhlodromus pyri = test: LR50; higher = less toxic; conditions: not reported; mortality

## COc1cc(OC)nc(NC(=O)NS(=O)(=O)c2ncccc2C(F)(F)F)n1 [Flazasulfuron]
Apis mellifera; dermal
  LD50: > 25.9 µg/piece
Apis mellifera; oral, unspecified
  LD50: > 46.3 µg/piece
Bibionidae
  NOEC: 0.1 mg/L
Bird
  LD50: 2120 mg/kg-day
Canidae; chronic, duration: 1 years
  NOAEL: 2 mg/kg-day
Canidae; repeat dose other
  LEC: 2 mg/kg-day
Canidae; subchronic, duration: 90 days
  NOAEL: 2 mg/kg-day
Colinus virginianus
  NOAEL: 95.9 mg/kg-day
Coturnix japonica
  LD50: 995 mg/kg-day
Daphnia magna
  NOEC: 6.2 mg/L
Folsomia candida
  NOEC: 125 mg/kg
Oncorhynchus mykiss; acute, duration: 96 hours, mortality
  LC50: 22 mg/L (≈ 54 µM)
Oncorhynchus mykiss; chronic/long-term, duration: 21 days
  NOEC: 5 mg/L
Rattus norvegicus; acute, oral, mortality
  LD50: 1320 mg/kg-day
Rattus norvegicus; chronic, duration: 2 years, other
  NOAEL: 1.3 mg/kg-day
Rattus norvegicus; reproduction developmental
  NOAEL: 11 mg/kg-day
Rattus norvegicus; reproduction developmental, body weight
  NOAEL: 100 mg/kg-day
Tagia sp.
  NOEC: 8 mg/kg
Typhlodromus pyri
  LR50: > 50 g/ha
